According to PMC8282797, “Strictly regulated agonist-dependent activation of AMPA-R is the key characteristic of TAK-653 for robust synaptic responses and cognitive improvement” (Scientific Reports, 2021):
Entries after “also recorded” stand apart in the source; their conditions may differ. Read-outs that look alike come from different tables or passages of the source.

Tested on: AMPA-R
Experiment: Whole-cell patch clamp recording in acute PFC slices (AMPA-R-mediated EPSPs)
Assay type: cell-based, rat
Set-up: key to Synaptic EPSP response: -: No effect or slight effect; +: Potent; ++: Very potent
Conditions: for Synaptic EPSP response: summary grade; for Spike number and EPSP duration after switch from LY451646 (30 μM): 10 μM
Procedure: Coronal PFC slices were prepared from male Sprague–Dawley rats (10- to 14-day-old). The slices including layer V PFC pyramidal neurons were perfused at a flow rate of 1–2 ml/min with recording aCSF containing the following: 124 mM NaCl, 5 mM KCl, 1.2 mM NaH2PO4, 1.5 mM MgCl2, 2.5 mM CaCl2, 10 mM glucose, 24 mM NaHCO3 bubbled with carbogen (95% O2; 5% CO2). Current clamp recordings at holding potential of approximately − 65 mV with constant current were carried out at 32–33 °C using a pipette filled with an intracellular solution consisting of: 140 mM K-gluconate, 4 mM KCl, 10 mM HEPES, 0.2 mM EGTA, 4 mM MgATP, 0.3 mM Na2GTP, pH 7.3 with KOH in the presence of bicuculline (20 μM), CGP52422 (10 μM), and APV (50 μM) to block GABAA and B and NMDA receptors, respectively. Methods are described in the Supplementary Information.
Coronal prefrontal cortex (PFC) slices were prepared from male Sprague-Dawley rats (10- to 14-day-old). Animals were sacrificed following acute decapitation, and their brain was quickly removed and placed in an ice-cold modified artificial cerebrospinal fluid (aCSF) of the following composition: 92 mM N-methyl-D-glucamine (NMDG), 2.5 mM KCl, 1.25 mM NaH2PO4, 30 mM NaHCO3, 20 mM HEPES, 25 mM glucose, 2 mM thiourea, 5 mM Na-ascorbate, 3 mM Na-pyruvate, 0.5 mM CaCl2, and 10 mM MgSO4. The pH of the solution was titrated to 7.3-7.4 with concentrated HCl. Coronal slices were cut at a thickness of 300 μm with using a linear slicer PRO7 (Dosaka EM, Kyoto, Japan). Slices were initially recovered for ≤ 15 min at 34°C and then transferred to a holding chamber containing HEPES holding aCSF (92 mM NaCl, 2.5 mM KCl, 1.25 mM NaH2PO4, 30 mM NaHCO3, 20 mM HEPES, 25 mM glucose, 2 mM thiourea, 5 mM Na-ascorbate, 3 mM Na-pyruvate, 2 mM CaCl2 and 2 mM MgSO4) at room temperature for at least 1 h before starting the recording. The slices were then transferred to the recording chamber mounted on a FN1 microscope (Nikon, Tokyo, Japan), in which they were submerged and perfused at a flow rate of 1-2 ml/min with recording aCSF containing the following: 124 mM NaCl, 5 mM KCl, 1.2 mM NaH2PO4, 1.5 mM MgCl2, 2.5 mM CaCl2, 10 mM glucose, 24 mM NaHCO3. All aCSF solutions were continuously bubbled with carbogen (95% O2; 5% CO2). Differential interference contrast (DIC) microscopy (C10639, Hamamatsu, Japan) was used to visualize pyramidal neurons in the PFC. Patch pipettes (5-6 MΩ) were prepared from borosilicate capillary glass using a micropipette puller PC-10 (NARISHIGE, Tokyo, Japan). Current clamp recordings were carried out at 32-33°C using a pipette filled with intracellular solution consisting of: 140 mM K-gluconate, 4 mM KCl, 10 mM HEPES, 0.2 mM EGTA, 4 mM MgATP, 0.3 mM Na2GTP, pH 7.3 with KOH in the presence of bicuculline (20 μM), CGP52422 (10 μM), and APV (50 μM) to block GABAA and B and NMDA receptors, respectively. Signals were recorded using a Multiclamp 700B amplifier (Molecular Devices, LLC, Orleans Drive Sunnyvale, CA), digitized using a Digidata 1440A interface board, filtered between 2 kHz, sampled at 10 kHz, and analyzed with pClamp10 software. Layer V PFC pyramidal neurons were recorded at holding potential of approximately –65 mV with constant current. A hyperpolarizing step (–20 pA) prior to each stimulation was used to monitor any changes in access resistance. Postsynaptic potentials were evoked by constant current single stimulation pulses (100 μs, 10-100 μA) delivered with a 20-s interstimulus interval using monopolar stimulating electrodes positioned in layer I.

SMILES | Membrane potentials of recorded neurons (0.3 μM) | Polysynaptic EPSP duration and evoked spike number (0.3 μM, 5 min, membrane held at −65 mV) | Synaptic EPSP response | Membrane potentials of recorded neurons | Spike number and EPSP duration after switch from LY451646 (30 μM) | Suprathreshold response (10 μM for 10 min) | Spike number and EPSP duration after switch from LY451646 (30 μM) (listed as TAK653) | Suprathreshold polysynaptic EPSPs (evoked spikes, EPSP duration) (0.3 to 30 μM, 10 min bath application)
Cc1onc(O)c1CC(N)C(=O)O (stereo not drawn) [AMPA, alpha-amino-3-hydroxy-5-methyl-4-isoxazole-propionic acid] | increased | reduced; also recorded: diminished the suprathreshold response | ─ | – | – | – | – | –
CC1=CN2CCS(=O)(=O)N=C2C(c2ccc(OC3CCCCC3)cc2)=N1 [TAK-653, 9-[4-(Cyclohexyloxy)phenyl]-7-methyl-3,4-dihydropyrazino[2,1-c][1,2,4]thiadiazine 2,2-dioxide] | – | – | ++ | did not increase | a clear increase | enhanced the suprathreshold response | further augmentation of spike number | enhanced
